Our source for the pest or weed control and YFM values is patent US20140274688A1, “MOLECULES HAVING CERTAIN PESTICIDAL UTILITIES, AND INTERMEDIATES, COMPOSITIONS, AND PROCESSES RELATED THERETO” (DOW AGROSCIENCES LLC, priority 2013, published 2014).

For assay [1], the system named is Cabbage Looper (Trichoplusia ni) ("CL"). The assay can be described thus: Bioassay on Cabbage Looper (CL), 128-well diet tray assay, percent mortality. As to conditions: Trichoplusia ni, read-out: CL. The format is in vivo. Summed up:
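Larvae held in covered diet trays at 25 °C, 14:10 light-dark, for five to seven days. Percent mortality scored per well and averaged over eight wells.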

Assay [2] relates to Beet Armyworm (Spodoptera exigua) ("BAW"). The assay can be described thus: Bioassay on Beet Armyworm (BAW), 128-well diet tray assay, percent mortality. As to conditions: Spodoptera exigua, read-out: BAW. The format is in vivo. The gist of the method: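 Larvae in covered diet trays held at 25 °C, 14:10 light-dark, for five to seven days. Percent mortality scored per well and averaged over eight wells per treatment.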

Assay [3] deals with Yellow Fever Mosquito "YFM" (Aedes aegypti). As to conditions: rating of mortality, Yellow Fever Mosquito.

Read-outs that look alike come from different tables or passages of the source.

On to `Cc1ccc(C(C)C)c(N2C(=O)CS/C2=N\C(=O)NCCCc2cccc(-c3ncn(-c4ccc(OC(F)(F)F)cc4)n3)c2)c1` [P124, (Z)-1-(3-(2-isopropyl-5-methylphenyl)-4-oxothiazolidin-2-ylidene)-3-(3-(3-(1-(4-(trifluoromethoxy)phenyl)-1H-1,2,4-triazol-3-yl)phenyl)propyl)urea], for which the pest or weed control at 50 µg/cm2 in assay [1] and in assay [2] was 50 to 100% each time. In the case of `CCCc1ccc(C)cc1N1C(=O)CS/C1=N\C(=O)NCCCc1cccc(-c2ncn(-c3ccc(OC(F)(F)F)cc3)n2)c1` [P125, (Z)-1-(3-(5-methyl-2-propylphenyl)-4-oxothiazolidin-2-ylidene)-3-(3-(3-(1-(4-(trifluoromethoxy)phenyl)-1H-1,2,4-triazol-3-yl)phenyl)propyl)urea], the pest or weed control at 50 µg/cm2 in assay [1] and in assay [2] was 50 to 100% in each case. `CCc1cccc(C)c1N1C(=O)CS/C1=N\C(=O)NCCCc1cccc(-c2ncn(-c3ccc(OC(F)(F)F)cc3)n2)c1` [P127, (Z)-1-(3-(2-ethyl-6-methylphenyl)-4-oxothiazolidin-2-ylidene)-3-(3-(3-(1-(4-(trifluoromethoxy)phenyl)-1H-1,2,4-triazol-3-yl)phenyl)propyl)urea]: the pest or weed control at 50 µg/cm2 in assay [1] and in assay [2] was 50 to 100% each time. With `Cc1ccc(N2C(=O)CS/C2=N\C(=O)NCCCc2cccc(-c3ncn(-c4ccc(OC(F)(F)F)cc4)n3)c2)c(C(C)C)c1` [P128, (Z)-1-(3-(2-isopropyl-4-methylphenyl)-4-oxothiazolidin-2-ylidene)-3-(3-(3-(1-(4-(trifluoromethoxy)phenyl)-1H-1,2,4-triazol-3-yl)phenyl)propyl)urea], the pest or weed control at 50 µg/cm2 in assay [1] and in assay [2] was 50 to 100% throughout. With `CC(C)c1cc(F)ccc1N1C(=O)CS/C1=N\C(=O)NCCCc1cccc(-c2ncn(-c3ccc(OC(F)(F)F)cc3)n2)c1` [P129, (Z)-1-(3-(4-fluoro-2-isopropylphenyl)-4-oxothiazolidin-2-ylidene)-3-(3-(3-(1-(4-(trifluoromethoxy)phenyl)-1H-1,2,4-triazol-3-yl)phenyl)propyl)urea], the pest or weed control at 50 µg/cm2 in assay [1] and in assay [2] was 50 to 100% in each case. `COc1ccc(N2C(=O)CS/C2=N\C(=O)NCCCc2cccc(-c3ncn(-c4ccc(OC(F)(F)F)cc4)n3)c2)c(C)c1` [P131, (Z)-1-(3-(4-methoxy-2-methylphenyl)-4-oxothiazolidin-2-ylidene)-3-(3-(3-(1-(4-(trifluoromethoxy)phenyl)-1H-1,2,4-triazol-3-yl)phenyl)propyl)urea]: the pest or weed control at 50 µg/cm2 in assay [1] and in assay [2] was 50 to 100% each time. `CCc1ccccc1N1C(=O)CS/C1=N\C(=O)NCCCCc1ccc(-c2ncn(-c3ccc(OC(F)(F)F)cc3)n2)cc1` [P145, (Z)-1-(3-(2-ethylphenyl)-4-oxothiazolidin-2-ylidene)-3-(4-(4-(1-(4-(trifluoromethoxy)phenyl)-1H-1,2,4-triazol-3-yl)phenyl)butyl)urea]: the pest or weed control at 50 µg/cm2 in assay [1] and in assay [2] was 50 to 100% throughout. As for `CC(C)c1ccccc1N1C(=O)CS/C1=N\C(=O)NCCCCc1ccc(-c2ncn(-c3ccc(OC(F)(F)F)cc3)n2)cc1` [P146, (Z)-1-(3-(2-isopropylphenyl)-4-oxothiazolidin-2-ylidene)-3-(4-(4-(1-(4-(trifluoromethoxy)phenyl)-1H-1,2,4-triazol-3-yl)phenyl)butyl)urea], the pest or weed control at 50 µg/cm2 in assay [1] and in assay [2] was 50 to 100% throughout.

Regarding `Cc1ccc(C(C)C)c(N2C(=O)CS/C2=N\C(=O)NCCCCc2ccc(-c3ncn(-c4ccc(OC(F)(F)F)cc4)n3)cc2)c1` [P150, (Z)-1-(3-(2-isopropyl-5-methylphenyl)-4-oxothiazolidin-2-ylidene)-3-(4-(4-(1-(4-(trifluoromethoxy)phenyl)-1H-1,2,4-triazol-3-yl)phenyl)butyl)urea], the pest or weed control at 50 µg/cm2 in assay [1] and in assay [2] was 50 to 100% in each case. Regarding `CCCc1ccc(C)cc1N1C(=O)CS/C1=N\C(=O)NCCCCc1ccc(-c2ncn(-c3ccc(OC(F)(F)F)cc3)n2)cc1` [P151, (Z)-1-(3-(5-methyl-2-propylphenyl)-4-oxothiazolidin-2-ylidene)-3-(4-(4-(1-(4-(trifluoromethoxy)phenyl)-1H-1,2,4-triazol-3-yl)phenyl)butyl)urea], the pest or weed control at 50 µg/cm2 in assay [1] and in assay [2] was 50 to 100% in each case. For the compound `CC(C)c1cc(F)ccc1N1C(=O)CS/C1=N\C(=O)NCCCCc1ccc(-c2ncn(-c3ccc(OC(F)(F)F)cc3)n2)cc1` [P155, (Z)-1-(3-(4-fluoro-2-isopropylphenyl)-4-oxothiazolidin-2-ylidene)-3-(4-(4-(1-(4-(trifluoromethoxy)phenyl)-1H-1,2,4-triazol-3-yl)phenyl)butyl)urea], the pest or weed control at 50 µg/cm2 in assay [1] and in assay [2] was 50 to 100% throughout. Take `COc1ccc(C(C)C)c(N2C(=O)CS/C2=N\C(=O)NCCCCc2ccc(-c3ncn(-c4ccc(OC(F)(F)F)cc4)n3)cc2)c1` [P156, (Z)-1-(3-(2-isopropyl-5-methoxyphenyl)-4-oxothiazolidin-2-ylidene)-3-(4-(4-(1-(4-(trifluoromethoxy)phenyl)-1H-1,2,4-triazol-3-yl)phenyl)butyl)urea]: the pest or weed control at 50 µg/cm2 in assay [1] and in assay [2] was 50 to 100% in each case. With `CCc1ccccc1N1C(=O)CS/C1=N\C(=O)NCCCCc1cccc(-c2ncn(-c3ccc(OC(F)(F)F)cc3)n2)c1` [P171, (Z)-1-(3-(2-ethylphenyl)-4-oxothiazolidin-2-ylidene)-3-(4-(3-(1-(4-(trifluoromethoxy)phenyl)-1H-1,2,4-triazol-3-yl)phenyl)butyl)urea], the pest or weed control at 50 µg/cm2 in assay [1] and in assay [2] was 50 to 100% each time.

Consider `CC(C)c1ccccc1N1C(=O)CS/C1=N\C(=O)NCCCCc1cccc(-c2ncn(-c3ccc(OC(F)(F)F)cc3)n2)c1` [P172, (Z)-1-(3-(2-isopropylphenyl)-4-oxothiazolidin-2-ylidene)-3-(4-(3-(1-(4-(trifluoromethoxy)phenyl)-1H-1,2,4-triazol-3-yl)phenyl)butyl)urea], for which the pest or weed control at 50 µg/cm2 in assay [1] and in assay [2] was 50 to 100% in each case. For the compound `Cc1ccc(C(C)C)c(N2C(=O)CS/C2=N\C(=O)NCCCCc2cccc(-c3ncn(-c4ccc(OC(F)(F)F)cc4)n3)c2)c1` [P176, (Z)-1-(3-(2-isopropyl-5-methylphenyl)-4-oxothiazolidin-2-ylidene)-3-(4-(3-(1-(4-(trifluoromethoxy)phenyl)-1H-1,2,4-triazol-3-yl)phenyl)butyl)urea], the pest or weed control at 50 µg/cm2 in assay [1] and in assay [2] was 50 to 100% throughout. With `CC(C)c1cc(F)ccc1N1C(=O)CS/C1=N\C(=O)NCCCCc1cccc(-c2ncn(-c3ccc(OC(F)(F)F)cc3)n2)c1` [P181, (Z)-1-(3-(4-fluoro-2-isopropylphenyl)-4-oxothiazolidin-2-ylidene)-3-(4-(3-(1-(4-(trifluoromethoxy)phenyl)-1H-1,2,4-triazol-3-yl)phenyl)butyl)urea], the pest or weed control at 50 µg/cm2 in assay [1] and in assay [2] was 50 to 100% in each case. Take `COc1ccc(C(C)C)c(N2C(=O)CS/C2=N\C(=O)NCCCCc2cccc(-c3ncn(-c4ccc(OC(F)(F)F)cc4)n3)c2)c1` [P182, (Z)-1-(3-(2-isopropyl-5-methoxyphenyl)-4-oxothiazolidin-2-ylidene)-3-(4-(3-(1-(4-(trifluoromethoxy)phenyl)-1H-1,2,4-triazol-3-yl)phenyl)butyl)urea]: the pest or weed control at 50 µg/cm2 in assay [1] and in assay [2] was 50 to 100% throughout. Regarding `CCC(CNC(=O)/N=C1\SCC(=O)N1c1ccccc1C(C)C)c1ccc(-c2ncn(-c3ccc(OC(F)(F)F)cc3)n2)cc1` (stereo not shown) [P209, (Z)-1-(3-(2-isopropylphenyl)-4-oxothiazolidin-2-ylidene)-3-(2-(4-(1-(4-(trifluoromethoxy)phenyl)-1H-1,2,4-triazol-3-yl)phenyl)butyl)urea], in assay [3] (Table ABC (P)), the YFM entry is listed as “A (80-100)”. Also, the pest or weed control at 50 µg/cm2 in assay [2] lay within 50 to 100%.

As for `CCC(CNC(=O)/N=C1\SCC(=O)N1c1cc(C)ccc1C(C)C)c1ccc(-c2ncn(-c3ccc(OC(F)(F)F)cc3)n2)cc1` (stereo not shown) [P364, (Z)-1-(3-(2-isopropyl-5-methylphenyl)-4-oxothiazolidin-2-ylidene)-3-(2-(4-(1-(4-(trifluoromethoxy)phenyl)-1H-1,2,4-triazol-3-yl)phenyl)butyl)urea], the pest or weed control at 50 µg/cm2 in assay [1] and in assay [2] was 50 to 100% each time. Turning to `CCC(CNC(=O)/N=C1\SCC(=O)N1c1cc(OC)ccc1C(C)C)c1ccc(-c2ncn(-c3ccc(OC(F)(F)F)cc3)n2)cc1` (stereo not shown) [P683, (Z)-1-(3-(2-isopropyl-5-methoxyphenyl)-4-oxothiazolidin-2-ylidene)-3-(2-(4-(1-(4-(trifluoromethoxy)phenyl)-1H-1,2,4-triazol-3-yl)phenyl)butyl)urea], in assay [3] (Table ABC (P)), the YFM result is given as “A (80-100)”. Further, the pest or weed control at 50 µg/cm2 in assay [2] lay within 50 to 100%. Turning to `CCCc1ccc(C)cc1NC(=S)NC(=O)NCCCCc1ccc(-c2ncn(-c3ccc(OC(F)(F)F)cc3)n2)cc1` [PC151, 1-[(5-methyl-2-propyl-phenyl)carbamothioyl]-3-[4-[4-[1-[4-(trifluoromethoxy)phenyl]-1,2,4-triazol-3-yl]phenyl]butyl]urea], the pest or weed control at 50 µg/cm2 in assay [1] and in assay [2] was 50 to 100% in each case. On to `CCc1cccc(C)c1NC(=S)NC(=O)NCCCCc1ccc(-c2ncn(-c3ccc(OC(F)(F)F)cc3)n2)cc1` [PC153, 1-[(2-ethyl-6-methyl-phenyl)carbamothioyl]-3-[4-[4-[1-[4-(trifluoromethoxy)phenyl]-1,2,4-triazol-3-yl]phenyl]butyl]urea], for which, in assay [3] (Table ABC (PC)), the YFM result is on record as “B (More than 0-Less than 80)”.
